# Where two headings read alike, the source gives them in different places.
# Key:
# [1] = system: Methylmalonic Acidemia (MMA) primary fibroblasts Tsi 5224; test: Mitochondrial respiration, XFe96 Extracellular Flux Analyzer (OCR/ECAR), MMA fibroblasts Tsi 5224; type: cell-based; conditions: Homo sapiens, Fibroblast;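 as to Increase in Maximal Respiratory Capacity AUC: relative to vehicle DMSO control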
# How it was run: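 Primary fibroblasts (20000 cells/well) were held 24 h in supplemented DMEM before Seahorse OCR/ECAR profiling. Compounds at 10 to 50 μM or 0.1% DMSO were injected after baseline, then oligomycin 1 μg/ml, FCCP, and rotenone/antimycin A 0.5 μM. Values were normalized to Hoechst nuclear counts, baselined to pre-compound, and expressed relative to vehicle.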
# [2] = system: Propionic Acidemia (PA) primary fibroblasts Tsi 6337; test: Mitochondrial respiration, XFe96 Extracellular Flux Analyzer (OCR/ECAR), PA fibroblasts Tsi 6337; type: cell-based; conditions: Homo sapiens, Fibroblast
# Experimental: The effect of the compounds of the present disclosure on mitochondrial respiration was measured with a XFe96 Extracellular Flux Analyzer (Seahorse Bioscience, Agilent Technologies) and Oxygen consumption Rate (OCR) and Extracellular acidification rate (ECAR) determined.
# Cell culture and treatments. Primary adherent fibroblasts were cultured in minimum essential medium (MEM) (Gibco, 25030081) supplemented with 2 mM L-Glutamine (Gibco, 25030081), 15% fetal bovine serum (FBS) (Gibco, 26400044) and 1% penicillin/streptomycin (Gibco, 5140122) at 37° C. and 5% CO2. Cells were collected for either passaging or experiment at ˜70-80% confluence. Cells were obtained by trypsinization and seeded at 20000 cells/well in cell culture microplates (Seahorse Bioscience, 101085-004) and allowed to adhere for 16 hours in culture media.
# By profiling different primary cells and/or optimizing their culture media or environmental components one can select cell lines and/or conditions that are appropriate for the biological or disease model. In the present example, 24 hours prior to OCR and ECAR profiling, media was changed to Dulbecco's Modified Eagle Medium (DMEM, Agilent Seahorse 103575-100) with the appropriate supplements for the different primary cells (10 mM glucose, 2 mM L-glutamine, 1 mM pyruvate, 10% FBS; 1 mM glucose, 2 mM L-glutamine, 1 mM pyruvate, 10% FBS; 10 mM glucose, 10% FBS; 5 mM glucose 10% FBS; 1 mM glucose 10% FBS). Cells used in this example were: Propionic Acidemia (PA) (GM00371, GM03590 Coriell Institute for Medical Research, Tsi 6337, Tsi 4626, Tsi 3618 Trans-Hit Bio), Methylmalonic Acidemia (MMA) (GM01673, Coriell Institute for Medical Research, Tsi 5224 Trans-Hit Bio), Branched chain ketoacid dehydrogenase kinase (BCKDK) (GM00612, GM00649 Coriell Institute for Medical Research), Subnormal activation of pyruvate dehydrogenase complex (PDH) (GM01503 Coriell Institute for Medical Research), Very long-chain acyl-CoA dehydrogenase (VLCAD) (GM17475), Leigh Syndrome (LS) (GM03672, GM13411 Coriell Institute for Medical Research), Pyruvate Carboxylase Deficiency (PC) (GM00444 Coriell Institute for Medical Research), Glutaric Acidemia-I (GA) (GM10653), Friedreich's Ataxia (FXN) (GM04078 Coriell Institute for Medical Research, Huntington's disease (HD) (GM21756 Coriell Institute for Medical Research), Ornithine Transcarbamylase Deficiency (OTC) (GM12756 Coriell Institute for Medical Research), Kearns-Sayre Syndrome (KSS) (GM06225 Coriell Institute for Medical Research).
# One hour before the assay, the cells were washed with freshly prepared unbuffered serum free-Seahorse XF Assay medium (Seahorse Bioscience, North America, USA, 103575-100) with the same supplements as for the previous 24 hour incubation.
# After baseline measurements of OCR, cells were challenged with compounds of the present disclosure at different concentrations (10 to 50 μM) or vehicle (DMSO, 0.1%) and a post-compound baseline was recorded. OCR was measured after sequentially adding to each well 1 μg/ml oligomycin (inhibitor of ATP synthase Sigma-Aldrich, 753531), then maximal OCR was determined with carbonyl cyanide 4-(trifluoromethoxy) phenylhydrazone (FCCP, Sigma-Aldrich, C2920), (uncoupler of oxidative phosphorylation) and 0.5 μM of rotenone (Sigma-Aldrich, R8875) plus antimycin A (Sigma-Aldrich, A8674) (inhibitors of mitochondrial complex I and III) for determination of rotenone-antimycin insensitive respiration together with Hoechst for nuclear staining in situ when normalized to cell counts. After the analysis and nuclear staining, the XFp microplate was transferred to the Cytation 5, and the nuclear images were captured, the individual nuclei were identified and counted by BioTek Gen5 software. Data were expressed as pmol of O2 per minute and normalized by nuclear staining and baselined to pre-compound addition.
# Assay conditions were as stated below.
# Assay specifics on assay conditions are indicated below when readouts were normalized to cell counts. […]
# [3] = system: primary fibroblasts (healthy controls and PA, MMA, BCKDK, PDH, VLCAD, LS, PC, GA, VLCFA, KSS, FXN, HD); test: Measurement of ROS (H2DCFDA) in primary fibroblasts; type: cell-based, human; conditions: Homo sapiens, procedure Example 812
# Experimental: Primary adherent fibroblasts were cultured in minimum essential medium (MEM) (Gibco, 25030081) supplemented with 2 mM L-Glutamine (Gibco, 25030081), 15% fetal bovine serum (FBS) (Gibco, 26400044) and 1% penicillin/streptomycin (Gibco, 5140122) at 37° C. and 5% CO2. Cells were collected for either passaging or experiment at ˜70-80% confluence. Cells were obtained by trypsinization and seeded in cell culture microplates either white plate (Thermo Fisher Scientific, 152028) for luminescent measurement or black plate (Thermo Fisher Scientific, 165305) for fluorescent based read out for different assays listed below. Cells were obtained by trypsinization and […] were seeded and allowed to adhere for 16-18 hours to have confluency around 70-80% in the cell well with culture media. After 24 hours prior to measurements (37° C., 5% CO2) media was changed to Dulbecco's Modified Eagle Medium (DMEM, Agilent Seahorse cat #103575-100) with the appropriate supplements as stated below.
# Primary fibroblasts assayed were Healthy controls (GM00041, GM05659, GM23974 Coriell Institute for Medical Research), Propionic Acidemia (PA) (GM00371, GM03590 Coriell Institute for Medical Research, Tsi 6337 Trans-Hit Bio), Methylmalonic Acidemia (MMA) (GM01673, Coriell Institute for Medical Research, Tsi 5224, Tsi 4290 Trans-Hit Bio), Branched chain ketoacid dehydrogenase kinase (BCKDK) (GM00612, GM00649 Coriell Institute for Medical Research), Subnormal activation of pyruvate dehydrogenase complex (PDH) (GM01503 Coriell Institute for Medical Research), Very long-chain acyl-CoA dehydrogenase (VLCAD) (GM17475), Leigh Syndrome (LS) (GM03672, GM13411 Coriell Institute for Medical Research), Pyruvate Carboxylase Deficiency (PC) (GM00444 Coriell Institute for Medical Research), Glutaric Acidemia-I (GA), Impaired VLCFA oxidation (VLCFA) (GM13262), Kearns-Sayre Syndrome (KSS) (GM06225 Coriell Institute for Medical Research), Friedreich's Ataxia (FXN), Huntington's disease (HD) (GM21756 Coriell Institute for Medical Research). Next, cells were treated with compounds (10 μM) and ROS H2DCFDA (22 μM) dye for 2 hours in PA, MMA lines and for 24h for the other fibroblast lines. Kinetic read was started immediately with a i3x plate reader (492/527 nm) for 60 minutes.
# A total dead cell count was performed as described in Example 817 and only alive cells were used for analysis.
# [4] = system: monocyte-derived M1 macrophages; test: M1 differentiation assay (macrophage TNFα, IL6, IL10 ELISA, FACS); type: cell-based, human
# Experimental: Monocytes were isolated by positive isolation with CD14+ microbeads (Miltenyi, 130-050-201). Monocytes were 99% viable and were 96% purity as analyzed by FACS and CD14+ (BD, 563561). 100,000 monocytes along with compounds at the dose of 10 and 50 μM were allowed to differentiate to macrophages with 10 ng/ml GMCSF (R&D, 15-GM-050/CF) in RPMI complete media (Invitrogen, 22400089) with 15% FBS (Hyclone SV30087.03) and 1% Penicillin-Streptomycin (Gibco, 15140-122). On day 2 and 4 half the media was refreshed with fresh GM-CSF and compounds at 10 and 50 μM dose. On day 6 the macrophages were matured with GMCSF, IFNγ (R&D 285-IF-100/CF) and LPS (Sigma, L6143) in the presence of 10 μM and 50 μM of compounds. After 24h, supernatant was collected for the measurement of TNFα (DKW, 1117202) IL6 (DKW, 1110602), IL10 (DKW, 1110003) by ELISA. Macrophages were detached gently on ice with EDTA (Invitrogen, 15575-038) and analyzed by FACS (BD LSR Fortessa, 853492). Cells were stained for live/dead dye, surface and intracellular markers with fixation/permeabilization solution (BD, 554714) and ALIVE/DEAD™ Fixable Near-IR Dead Cell Stain Kit (BD, L34976), mouse anti human CD86 APC (BD, 555660), mouse anti-human CD163 PE (BD, 556018), mouse anti-human CD68 FITC (BD, 562117) or isotype controls anti-mouse IgG1 κ PE (BD, 559320) and anti-mouse IgG1 κ APC (BD, Anti mouse IgG1 κ APC (BD, 55571). Mature M1 macrophages were defined as CD86+CD68+CD163− and increase in TNFα, IL6, and decrease in IL-10.
# [5] = PA Tsi 6337, assay condition D (1 mM glucose, 10% FBS), read-out: Increase in Maximal Respiratory Capacity AUC
# [6] = MMA Tsi 5224, assay condition A (10 mM glucose, 2 mM L-glutamine, 1 mM pyruvate, 10% FBS), read-out: Increase in Maximal Respiratory Capacity AUC
# [7] = PA Tsi 6337, assay condition A (10 mM glucose, 2 mM L-glutamine, 1 mM pyruvate, 10% FBS), read-out: Increase in Maximal Respiratory Capacity AUC
# [8] = FXN GM04078, Assay Condition C, read-out: Decreased ROS by at least 10%
# [9] = FXN GM04078, Assay Condition C, read-out: Decreased ROS by at least 30%
structure (smiles),measurement,setting,value
"COC(=O)C(=O)SCCNC(=O)CCNC(=O)[C@H](O)C(C)(C)COP(=O)(O)O [Compound 60, Methyl (R)-2-((2-(3-(2-hydroxy-3,3-dimethyl-4-(phosphonooxy)butanamido)propanamido)ethyl)thio)-2-oxoacetate]",activation at 10 µM,"[1]; MMA Tsi 5224, assay condition D (1 mM glucose, 10% FBS), read-out: Increase in Maximal Respiratory Capacity AUC",≥ 10%
same,activation at 10 µM,[2]; [5],≥ 10%
same,inhibition at 10 µM,"[3]; Fibroblast, KSS GM06225, Assay Condition C, read-out: Decreased ROS by at least 10%",≥ 10%
same,inhibition at 10 µM,"[3]; Fibroblast, KSS GM06225, Assay Condition C, read-out: Decreased ROS by at least 30%",≥ 30%
CC(C)(CO)[C@@H](O)C(=O)NCCC(=O)NCCSC(=O)[C@@H](N)CC(=O)O [Compound 390],activation at 10 µM,[1]; [6],≥ 10%
same,activation at 10 µM,"[2]; PA Tsi 6337, assay condition D (1 mM glucose, 10% FBS), read-out: Increase in Spare Capacity AUC",≥ 10%
COC(=O)CC(O)(CC(=O)OC)C(=O)SCCNC(=O)CCNC(=O)[C@H](O)C(C)(C)CO [Compound 418],% decrease in Live Macrophage Cells,[4]; 50 uM,≥20%
same,activation at 10 µM,"[4]; Homo sapiens, Macrophage, 10 uM, read-out: % Increase in IL-10 Secretion",≥ 30%
same,inhibition at 10 µM,"[4]; Homo sapiens, Macrophage, 10 uM, read-out: % decrease in Macrophage IL-6 Secretion",≥ 30%
same,inhibition at 10 µM,"[4]; Homo sapiens, Macrophage, 10 uM, read-out: % decrease in Macrophage TNFα Secretion",≥ 30%
same,activation at 10 µM,[2]; [5],≥ 10%
COC(=O)CCC(=O)SCCNC(=O)CCNC(=O)[C@H](O)C(C)(C)COC(=O)CN [Compound 1228],activation at 10 µM,[1]; [6],≥ 10%
same,activation at 10 µM,[2]; [7],≥ 10%
same,activation at 10 µM,[2]; [5],≥ 10%
CC(C)(COC(=O)CCC(=O)O)[C@@H](OC(=O)CCC(=O)O)C(=O)NCCC(=O)NCCSC(=O)CCC(=O)O [Compound 1233],activation at 10 µM,"[1]; MMA Tsi 5224, assay condition C (10 mM glucose, 10% FBS), read-out: Increase in Spare Capacity AUC",≥ 50%
same,activation at 10 µM,[2]; [7],≥ 10%
same,inhibition at 10 µM,"[3]; Fibroblast, BCKD GM00612, Assay Condition A, read-out: Decreased ROS by at least 10%",≥ 10%
same,inhibition at 10 µM,"[3]; Fibroblast, VLCFA GM13262, Assay Condition C, read-out: Decreased ROS by at least 30%",≥ 30%
same,inhibition at 10 µM,[3]; [8],≥ 10%
same,inhibition at 10 µM,[3]; [9],≥ 30%
"CC(C(=O)SCCNC(=O)CCNC(=O)[C@H](O)C(C)(C)CO)[C@H](C)O (stereo partly drawn) [Compound 1248, (2R)-2,4-dihydroxy-N-{2-[(2-{[(3S)-3-hydroxy-2-methylbutanoyl]sulfanyl}ethyl)carbamoyl]ethyl}-3,3-dimethylbutanamide]",activation at 10 µM,[1]; [6],≥ 10%
same,activation at 10 µM,[2]; [7],≥ 10%
"CC[C@H](O)CC(=O)SCCNC(=O)CCNC(=O)[C@H](O)C(C)(C)CO [Compound 1249, (2R)-2,4-dihydroxy-N-{2-[(2-{[(3S)-3-hydroxypentanoyl]sulfanyl}ethyl)carbamoyl]ethyl}-3,3-dimethylbutanamide]",activation at 10 µM,[2]; [7],≥ 10%
same,inhibition at 10 µM,"[3]; Fibroblast, VLCAD GM17475, Assay Condition C, read-out: Decreased ROS by at least 10%",≥ 10%
same,inhibition at 10 µM,"[3]; Fibroblast, VLCAD GM17475, Assay Condition C, read-out: Decreased ROS by at least 30%",≥ 30%
same,inhibition at 10 µM,[3]; [8],≥ 10%
same,inhibition at 10 µM,[3]; [9],≥ 30%

# Reference: patent publication US20230107216A1, “PANTETHEINE DERIVATIVES AND USES THEREOF” (Comet Therapeutics, Inc., priority 2018, published 2023)
